Columns and labels:
[1] = tested on: central apomorphine-induced climbing; assay: Antagonism to central apomorphine-induced climbing (stereotypes) in mice; format: in vivo; conditions: Mus musculus, po; male mice; 60 minutes before 1 mg/kg s.c. apomorphine HCl; evaluated 10 minutes after apomorphine
From the text: (§1) Profiles of the central sedative pharmacological activity were obtained by Irwin's observational assessment of mouse behavior (Irwin, S.--Psychopharmacologia, Berl., 13, 222, 1968), which also gives an indication of the orientative acute toxicity after 7 days observation, and by antagonism to the central apomorphine-induced stereotypes (climbing) in mice.
For the antagonism to central apomorphine-induced climbing (Protais, P. et al.--Psychopharmacology, 50, 1, 1976), the compounds were orally administered to male mice, in a dose range between 0.25 and 10 mg/kg, 60 minutes before the subcutaneous injection of 1 mg/kg of apomorphine HCl. The antagonism to apormorphine-induced climbing behavior was evaluated 10 minutes after apomorphine administration.

[2] = Orientative acute toxicity (Irwin's observational assessment of mouse behavior, 7 days observation); conditions: in vivo, po, after 7 days observation
From the text: as §1

Row | Structure (SMILES) | ED50 [1] [mg/kg] | LD50 at 168 h [2] [mg/kg]
1 | CN1C(=O)CN(C[C@@H]2C[C@@H]3c4cccc5[nH]cc(c45)C[C@H]3N(C)C2)CC1=O [Example 3, 6-Methyl-8β-(3,5-dioxo-4-methyl-piperazin-1-ylmethyl)-ergoline] | 2.2 | 300
2 | CN1C[C@H](CN2CC(=O)NC(=O)C2)C=C2c3cccc4[nH]cc(c34)C[C@H]21 [Example 5, 6-Methyl-9,10-didehydro-8β-(3,5-dioxo-piperazin-1-ylmethyl)-ergoline] | 0.5 | 200
3 | CN1C[C@H](CN2CC(=O)NC(=O)C2)C[C@@H]2c3cccc4c3c(cn4C)C[C@H]21 [Example 2, 1,6-Dimethyl-8β-(3,5-dioxo-piperazin-1-ylmethyl)-ergoline] | 0.9 | 300
4 | CN1C[C@H](CN2CC(=O)NC(=O)C2)C[C@@H]2c3cccc4[nH]cc(c34)C[C@H]21 [Example 1, 6-Methyl-8β-(3,5-dioxo-piperazin-1-ylmethyl)-ergoline] | 4.4 | 600

Reference: patent US4728649A, “3-oxo-piperazin-1-yl-ergolines exhibiting antidopaminergic activity” (Farmitalia Carlo Erba, priority 1985, dated 1988)
